Like-named read-outs stand apart in the source and are kept apart here. *1 amine or outer side, *2 acyl side, *3 side chain or, on linkers, in order; H or OH if unused. Where a SMILES comes first, the peptide text is derived from it. Bridges are numbered along the chain shown (N, C = ends). [ ]: non-standard residue; d: D form. The star is where a group is joined. hPhe(3-Cl-4-CF3) = N[C@@H](CCc1ccc(C(F)(F)F)c(Cl)c1)C(=O)O; X31 = COCCCN([C@@H](Cc1ccc(C(F)(F)F)cc1)C(=O)[*:2])[*:1]; NPrPhe(4-CF3) = CCCN[C@@H](Cc1ccc(C(F)(F)F)cc1)C(=O)O; NMeGly(cPent) = CN[C@H](C(=O)O)C1CCCC1; Hyp = O=C(O)[C@@H]1C[C@@H](O)CN1; NMeD = CN[C@@H](CC(=O)O)C(=O)O; NMeL = CN[C@@H](CC(C)C)C(=O)O; Morpholide = C1CN(*)CCO1; Ac5c = NC1(C(=O)O)CCCC1; Ac4c = NC1(C(=O)O)CCC1; Sar = CNCC(=O)O
How the values were obtained:
[1] = biological target: GDP-bound KRAS wild-type protein (Homo sapiens, UniProt P01116); assay: Binding to KRAS by surface plasmon resonance (SPR), Single Cycle Kinetics; conditions: GDP-bound KRAS wild-type protein, read-out: KRAS KD
[2] = biological target: GDP-bound NRAS wild-type protein (Homo sapiens, UniProt P01111); assay: Binding to NRAS by surface plasmon resonance (SPR), Single Cycle Kinetics; conditions: for NRAS/KRAS (ratio of KD value with respect to NRAS to KD value with respect to KRAS) / NRAS/KRAS (ratio of KD value for NRAS to KD value for KRAS): SPR, GDP-bound NRAS wild-type protein vs GDP-bound KRAS wild-type protein
[3] = biological target: GDP-bound HRAS wild-type protein (Homo sapiens, UniProt P01112); assay: Binding to HRAS by surface plasmon resonance (SPR), Single Cycle Kinetics; conditions: for HRAS/KRAS (ratio of KD value with respect to HRAS to KD value with respect to KRAS) / HRAS/KRAS (ratio of KD value for HRAS to KD value for KRAS): SPR, GDP-bound HRAS wild-type protein vs GDP-bound KRAS wild-type protein
[4] = SPR Single Cycle Kinetics, 1:1 binding model
[5] = SPR, Single Cycle Kinetics, 1:1 binding model

Chain of GDP-bound KRAS wild-type protein (P01116 whole entry): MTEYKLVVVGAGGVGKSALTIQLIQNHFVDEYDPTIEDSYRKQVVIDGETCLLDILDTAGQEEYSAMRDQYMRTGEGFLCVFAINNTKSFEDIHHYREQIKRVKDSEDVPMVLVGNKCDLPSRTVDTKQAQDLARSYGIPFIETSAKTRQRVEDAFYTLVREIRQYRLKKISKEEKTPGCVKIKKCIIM
Chain of GDP-bound NRAS wild-type protein (P01111 whole entry): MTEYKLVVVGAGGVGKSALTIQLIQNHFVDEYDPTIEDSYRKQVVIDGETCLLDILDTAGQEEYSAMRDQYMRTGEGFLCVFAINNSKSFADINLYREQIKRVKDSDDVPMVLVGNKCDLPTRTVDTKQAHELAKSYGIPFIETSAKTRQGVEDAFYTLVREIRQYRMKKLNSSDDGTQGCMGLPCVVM
Chain of GDP-bound HRAS wild-type protein (P01112 whole entry): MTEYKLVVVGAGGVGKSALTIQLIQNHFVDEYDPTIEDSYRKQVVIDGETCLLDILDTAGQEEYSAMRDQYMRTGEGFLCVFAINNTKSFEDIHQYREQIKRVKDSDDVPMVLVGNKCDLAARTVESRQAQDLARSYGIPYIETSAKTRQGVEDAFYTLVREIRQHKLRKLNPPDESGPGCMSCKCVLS

CC[C@H](C)[C@@H]1NC(=O)[C@H](C)N(C)C(=O)C[C@@H](C(=O)N2CCOCC2)N(C)C(=O)[C@H](C2CCCC2)N(C)C(=O)C2(CCCC2)NC(=O)[C@@H]2CCCN2C(=O)[C@H](CCc2cc(F)c(C(F)(F)F)c(F)c2)NC(=O)CN(C)C(=O)[C@H](Cc2ccc(C(F)(F)F)cc2)N2CCCCC[C@@H](C2=O)N(C)C(=O)CN(C)C1=O [PP0487]
Kd [1, 4]: 1.7 nM | NRAS/KRAS (ratio of KD value with respect to NRAS to KD value with respect to KRAS) [2]: B (a compound having 3 or more and less than 10 is denoted as B) | HRAS/KRAS (ratio of KD value with respect to HRAS to KD value with respect to KRAS) [3]: B (a compound having 3 or more and less than 10 is denoted as B)

CC[C@H](C)[C@@H]1NC(=O)[C@H](CC(C)C)N(C)C(=O)C[C@@H](C(=O)N2CCOCC2)N(C)C(=O)[C@H](C2CCCC2)N(C)C(=O)C2(CCCC2)NC(=O)[C@@H]2CCCN2C(=O)[C@H](CCc2ccc(C(F)(F)F)c(Cl)c2)NC(=O)CN(C)C(=O)[C@H](Cc2ccc(C(F)(F)F)cc2)N(CCCOC)C(=O)CN(C)C(=O)CN(C)C1=O [PP0133] ([NMeL]I[Sar][Sar][X31][Sar][hPhe(3-Cl-4-CF3)]P[Ac5c][NMeGly(cPent)][NMeD]-Morpholide; lactam N-11)
Kd [1, 4]: 0.08 nM | NRAS/KRAS (ratio of KD value for NRAS to KD value for KRAS) [2]: B (a compound having 3 or more and less than 10 is denoted as B) | HRAS/KRAS (ratio of KD value for HRAS to KD value for KRAS) [3]: C (A compound having a KD ratio of 0.1 or more and less than 3 is denoted as C)

CC[C@H](C)[C@@H]1NC(=O)[C@H](CC(C)C)N(C)C(=O)C[C@@H](C(=O)N2CCOCC2)N(C)C(=O)[C@H](C2CCCC2)N(C)C(=O)C2(CCC2)NC(=O)[C@@H]2[C@H]3C[C@H]3CN2C(=O)[C@H](CCc2cc(F)c(C(F)(F)F)c(F)c2)NC(=O)CN(C)C(=O)[C@H](Cc2ccc(C(F)(F)F)cc2)N2CCCC[C@@H](C2=O)N(C)C(=O)CN(C)C1=O [PP0810]
Kd ([1]; SPR, Single Cycle Kinetics): 0.04 nM | NRAS/KRAS (ratio of KD value for NRAS to KD value for KRAS) [2]: B (a compound having 3 or more and less than 10 is denoted as B) | HRAS/KRAS (ratio of KD value for HRAS to KD value for KRAS) [3]: B (a compound having 3 or more and less than 10 is denoted as B)

CCCCO[C@@H]1C[C@H]2C(=O)NC3(CCC3)C(=O)N(C)[C@@H](C3CCCC3)C(=O)N(C)[C@H](C(=O)N3CCOCC3)CC(=O)N(C)[C@@H](CC(C)C)C(=O)N[C@@H]([C@@H](C)CC)C(=O)N(C)CC(=O)N(C)[C@H]3CCCCN(C3=O)[C@@H](Cc3ccc(C(F)(F)F)cc3)C(=O)N(C)CC(=O)N[C@@H](CCc3cc(F)c(C(F)(F)F)c(F)c3)C(=O)N2C1 [PP0999]
Kd ([1]; SPR, Single Cycle Kinetics): 0.11 nM | NRAS/KRAS (ratio of KD value for NRAS to KD value for KRAS) [2]: C (A compound having a KD ratio of 0.1 or more and less than 3 is denoted as C) | HRAS/KRAS (ratio of KD value for HRAS to KD value for KRAS) [3]: B (a compound having 3 or more and less than 10 is denoted as B)

CCO[C@@H]1C[C@H]2C(=O)NC3(CCCC3)C(=O)N(C)[C@@H](C3CCCC3)C(=O)N(C)[C@H](C(=O)N(C)C)CC(=O)N(C)[C@@H](CC(C)C)C(=O)N[C@@H]([C@@H](C)CC)C(=O)N(C)CC(=O)N(C)[C@H]3C/C=C\CCN(C3=O)[C@@H](Cc3ccc(C(F)(F)F)cc3)C(=O)N(C)CC(=O)N[C@@H](CCc3ccc(C(F)(F)F)c(Cl)c3)C(=O)N2C1 [PP2838]
Kd [1, 4]: 0.066 nM | NRAS/KRAS (ratio of KD value with respect to GDP-bound NRAS wild-type protein to KD value with respect to KRAS) ([2]; SPR KD ratio NRAS/KRAS, class symbols): AA (a compound having 20 or more is denoted as AA) | HRAS/KRAS (ratio of KD value with respect to GDP-bound HRAS wild-type protein to KD value with respect to KRAS) ([3]; SPR KD ratio HRAS/KRAS, class symbols): A (a compound having 10 or more and less than 20 is denoted as A)

CCCN1C(=O)CN(C)C(=O)CN(C)C(=O)[C@H]([C@@H](C)CC)NC(=O)[C@H](CC(C)C)N(C)C(=O)C[C@@H](C(=O)N2CCOCC2)NC(=O)[C@H](C2CCCC2)N(C)C(=O)C2(CCC2)NC(=O)[C@@H]2CCCN2C(=O)[C@H](CCc2ccc(C(F)(F)F)c(Cl)c2)NC(=O)CN(C)C(=O)[C@@H]1Cc1ccc(C(F)(F)F)cc1 [PP0320] ([NMeL]I[Sar][Sar][NPrPhe(4-CF3)][Sar][hPhe(3-Cl-4-CF3)]P[Ac4c][NMeGly(cPent)]D-Morpholide; lactam N-11)
Kd [1, 4]: 0.9 nM | NRAS/KRAS (ratio of KD value for NRAS to KD value for KRAS) [2]: B (a compound having 3 or more and less than 10 is denoted as B) | HRAS/KRAS (ratio of KD value for HRAS to KD value for KRAS) [3]: B (a compound having 3 or more and less than 10 is denoted as B)

CCO[C@@H]1C[C@H]2C(=O)NC3(CCC3)C(=O)N(C)[C@@H](C3CCCC3)C(=O)N(C)[C@H](C(=O)N(C)CCOC)CC(=O)N(C)[C@@H](CC(C)C)C(=O)N[C@@H]([C@@H](C)CC)C(=O)N(C)CC(=O)N(C)[C@H]3C/C=C\CCN(C3=O)[C@@H](Cc3ccc(C(F)(F)F)cc3)C(=O)N(C)CC(=O)N[C@@H](CCc3ccc(Cl)c(Cl)c3)C(=O)N2C1 [PP1326]
Kd [1, 5]: 0.27 nM | NRAS/KRAS (ratio of KD value for NRAS to KD value for KRAS) ([2]; KD ratio class): AA (a compound having 20 or more is denoted as AA) | HRAS/KRAS (ratio of KD value for HRAS to KD value for KRAS) ([3]; KD ratio class): A (a compound having 10 or more and less than 20 is denoted as A)

C#CCN1CC(=O)N(C)[C@H]2C/C=C\CCN(C2=O)[C@@H](Cc2ccc(C(F)(F)F)cc2)C(=O)N(C)CC(=O)N[C@@H](CCc2cc(F)c(C(F)(F)F)c(F)c2)C(=O)N2C[C@H](OCC)C[C@H]2C(=O)NC2(CC(C)(C)C2)C(=O)N(C)[C@@H](C2CCCC2)C(=O)N(C)[C@H](C(=O)N(C)C)CC(=O)N(C)[C@@H](CCC)C(=O)N[C@@H]([C@@H](C)CC)C1=O [PP2103]
Kd ([1]; SPR, Single Cycle Kinetics): 0.25 nM | NRAS/KRAS (ratio of KD value for NRAS to KD value for KRAS) [2]: A (a compound having 10 or more and less than 20 is denoted as A) | HRAS/KRAS (ratio of KD value for HRAS to KD value for KRAS) [3]: A (a compound having 10 or more and less than 20 is denoted as A)

CCO[C@@H]1C[C@H]2C(=O)NC3(CC(C)(C)C3)C(=O)N(C)[C@@H](C3CCCC3)C(=O)N(C)[C@H](C(=O)N(C)C)CC(=O)N(C)[C@@H](CC)C(=O)N[C@@H]([C@@H](C)CC)C(=O)N(C)CC(=O)N(C)[C@H]3C/C=C\CCN(C3=O)[C@@H](Cc3ccc(C(F)F)cc3)C(=O)N(C)CC(=O)N[C@@H](CCc3cc(F)c(C(F)(F)F)c(F)c3)C(=O)N2C1 [PP2049]
Kd ([1]; SPR, Single Cycle Kinetics): 0.04 nM | NRAS/KRAS (ratio of KD value for NRAS to KD value for KRAS) [2]: A (a compound having 10 or more and less than 20 is denoted as A) | HRAS/KRAS (ratio of KD value for HRAS to KD value for KRAS) [3]: B (a compound having 3 or more and less than 10 is denoted as B)

CCO[C@@H]1C[C@H]2C(=O)NC3(CC(F)(F)C3)C(=O)N(C)[C@@H](C3CCCC3)C(=O)N(C)C(C(C)C)CC(=O)N(C)[C@@H](CC3CC3)C(=O)N[C@@H]([C@@H](C)CC)C(=O)N(C)CC(=O)N(C)[C@H]3C/C=C\CCN(C3=O)[C@@H](Cc3ccc(C(F)(F)F)cc3)C(=O)N(C)CC(=O)N[C@@H](CCc3cc(F)c(C(F)(F)F)c(F)c3)C(=O)N2C1 (stereo partly drawn) [PP1598]
Kd [1, 5]: 0.76 nM | NRAS/KRAS (ratio of KD value for NRAS to KD value for KRAS) ([2]; KD ratio class): A (a compound having 10 or more and less than 20 is denoted as A) | HRAS/KRAS (ratio of KD value for HRAS to KD value for KRAS) ([3]; KD ratio class): A (a compound having 10 or more and less than 20 is denoted as A)

CCCN1C(=O)CN(C)C(=O)CN(C)C(=O)[C@H]([C@@H](C)CC)NC(=O)[C@H](CC(C)C)N(C)C(=O)C[C@@H](C(=O)N2CCOCC2)NC(=O)[C@H](C2CCCC2)N(C)C(=O)C2(CCC2)NC(=O)[C@@H]2C[C@@H](OCC)CN2C(=O)[C@H](CCc2ccc(C(F)(F)F)c(Cl)c2)NC(=O)CN(C)C(=O)[C@@H]1Cc1ccc(C(F)(F)F)cc1 [PP0324] ([NMeL]I[Sar][Sar][NPrPhe(4-CF3)][Sar][hPhe(3-Cl-4-CF3)][Hyp](Et)[Ac4c][NMeGly(cPent)]D-Morpholide; lactam N-11)
Kd [1, 4]: 0.41 nM | NRAS/KRAS (ratio of KD value for NRAS to KD value for KRAS) [2]: B (a compound having 3 or more and less than 10 is denoted as B) | HRAS/KRAS (ratio of KD value for HRAS to KD value for KRAS) [3]: B (a compound having 3 or more and less than 10 is denoted as B)

CC[C@H](C)[C@@H]1NC(=O)[C@H](CC(C)C)N(C)C(=O)C[C@@H](C(=O)N2CCCC2)N(C)C(=O)[C@H](C2CCCC2)N(C)C(=O)C2(CCCC2)NC(=O)[C@@H]2CCCN2C(=O)[C@H](CCc2cc(F)c(C(F)(F)F)c(F)c2)NC(=O)CN(C)C(=O)[C@H](Cc2ccc(C(F)(F)F)cc2)N2CCCCC[C@@H](C2=O)N(C)C(=O)CN(C)C1=O [PP0509]
Kd [1, 4]: 2.4 nM | NRAS/KRAS (ratio of KD value with respect to NRAS to KD value with respect to KRAS) [2]: B (a compound having 3 or more and less than 10 is denoted as B) | HRAS/KRAS (ratio of KD value with respect to HRAS to KD value with respect to KRAS) [3]: B (a compound having 3 or more and less than 10 is denoted as B)

CC[C@H](C)[C@@H]1NC(=O)[C@H](C2CCC2)N(C)C(=O)C[C@@H](C(=O)N(C)CC)N(C)C(=O)[C@H](C2CCCC2)N(C)C(=O)C2(CCC2)NC(=O)[C@@H]2C[C@H](C)CN2C(=O)[C@H](CCc2ccc(C(F)(F)F)c(OC)c2)NC(=O)CN(C)C(=O)[C@H](Cc2ccc(C(F)(F)F)cc2)N2CC/C=C\C[C@@H](C2=O)N(C)C(=O)CN(C)C1=O [PP2071]
Kd ([1]; SPR, Single Cycle Kinetics): 0.1 nM | NRAS/KRAS (ratio of KD value for NRAS to KD value for KRAS) [2]: A (a compound having 10 or more and less than 20 is denoted as A) | HRAS/KRAS (ratio of KD value for HRAS to KD value for KRAS) [3]: A (a compound having 10 or more and less than 20 is denoted as A)

From patent publication US20240158446A1, “CYCLIC COMPOUND HAVING SELECTIVE INHIBITORY ACTION ON KRAS OVER HRAS AND NRAS” (CHUGAI SEIYAKU KABUSHIKI KAISHA, priority 2021, published 2024)
